The record followed here is patent US20260355168A1, “COMPOSITIONS AND METHODS FOR TREATING AND DETECTING CANCER” (CASE WESTERN RESERVE UNIVERSITY, priority 2022, published 2026).

Each structure is given as a SMILES string. Entries after “also recorded” stand apart in the source; their conditions may differ.

The subject of data set [1] is LN229 cells. As to the kind of experiment: LN229 glioma sphere formation and growth assay. It counts as cell-based, human. Particulars: 100 μM, in words; for Effect on LN229 sphere formation: day 1; for Effect on LN229 sphere growth: day 7. On the procedure: FIGS. 5(A-E) illustrate a histogram and images showing the results of the LN229 sphere formation and growth assays. Selected inhibitors, activators, and control compounds identified in LN229 and/or U87 scratch wound closure assays were retested at 100 μM in a secondary assay for glioma cell (LN229) sphere formation and growth. A. Histogram showing the effects of the indicated compounds on sphere formation. On day 1, sphere footprint areas were determined and normalized to the average footprint area of the unblinded vehicle-treated controls. On day 1, a larger footprint area indicates inhibition of aggregation. B. Histogram showing the effects of the indicated compounds on sphere growth. On day 7, the changes in sphere footprint areas were calculated and normalized to the average size change of the unblinded vehicle-treated controls. On day 7, a smaller value indicates reduced growth. […] Data is presented as percentages±s.e.m. of 2-4 replicates. Representative images of samples treated with DMSO (C) and two priority inhibitors (D and E) are shown. Relative day 1 footprint areas and day 7 growth measurements are indicated for each example.
FIGS. 15(A-D) illustrate a histogram and images of titration of selected compounds on LN229 sphere formation and growth. LN229 cells were plated onto non-adherent surfaces and treated with the indicated compounds at 100, 50, and 25 μM. A. On day 1, sphere footprint areas were determined and normalized to the average footprint area of the unblinded vehicle-treated controls. On day 1, a larger foot-print area indicates inhibition of aggregation. B. On day 7, the changes in sphere footprint areas were calculated and normalized to the average size change of the unblinded vehicle-treated controls. On day 7, a smaller value indicates reduced growth. […] Data is presented as percentages±s.e.m. The initial test at 100 μM and the follow-up at that dose with titration is shown. Each bar is the average of 2 replicates. Representative day 1 (C) and day 7 (D) images of samples treated with two priority inhibitors are shown. Relative day 1 sphere footprint areas and day 7 growth for each example are indicated.
(§1) Cells were seeded at a density of 7500 cells per well into the internal wells of 96-well plates coated with 0.75% (wt/vol) PVA as previously described. Compounds were added (2×replicates per treatment) at the indicated final concentrations, and control wells were treated with matching concentrations of DMSO. The external wells of the plates were filled with PBS to buffer against edge effects, and the cells were incubated at 37 °C and 5% CO2 for 7 days. A Leica CTR6500 microscope fitted with an automated stage was used to capture brightfield images on day 1 and day 7, and sphere footprint areas were measured using Image J (v1.52a http://imagej.nih.gov/ij) as previously described. To quantify the effects of the compounds on day 1, the footprint areas of the treated wells were normalized to the average area of the matched DMSO control wells. To quantify the effects of the compounds on sphere growth, the change in the sphere footprint areas was calculated ([…]) and then normalized to the average size change of the matched DMSO samples. All values are presented as average percentages±s.e.m.
We tested the effects of twenty-four compounds (11 flagged as inhibitory, 4 as stimulatory, and nine as inert in the initial scratch-wound screen, FIG. 2) on the ability of LN229 cells to mediate cell-cell adhesion and grow in 3D culture on non-adherent surfaces. To quantify sphere formation (FIG. 5A), the footprint areas of aggregates were measured on day 1 and normalized to that of the DMSO control. At this time point, a larger footprint size (>120%) indicates inhibition, i.e., the failure of cells to form a compact aggregate. To quantify sphere growth (FIG. 5B), we calculated the percent changes in sphere footprint areas between day 1 and day 7 and normalized them to that of the DMSO controls.

The subject of data set [2] is glioma cells. The experiment in a line: Glioma cell assays combined (scratch and sphere, several cell lines). Particulars: 100 μM; for Effect on glioma cells, overall: multiple assays and cell lines. It counts as cell-based, human. On the procedure: FIG. 2 illustrates a schematic of a functional screening approach. Seventy-four PTPμ wedge-targeted compounds and 2 blinded DMSO samples were received from Atomwise and screened at 100 μM in scratch wound healing assays using two glioma cell lines (LN229 and U87). Selected active and control compounds were taken into secondary assays (Gli36 scratch and LN229 and Gli36 sphere formation and growth assays). Inhibitors selected as being active in primary and secondary screens were tested for effects on the survival of LN229 and Sf9 cells, and selected glioma-cell inhibitors and activators were screened for effects on Sf9-PTPμ aggregation, a highly specific test for PTPμ function.
(§2) Cells were seeded at a density of 2.7×10^4 cells per well into the internal wells of Incuyte1 Imagelock 96-well plates (Essen BioScience Inc., Ann Arbor, MI) and cultured overnight to form monolayers. Monolayers were wounded with an IncuCyte1 96-well Woundmaker Tool per the manufacturer's instructions. The outer wells were filled with PBS to buffer edge effects, and then the wounded monolayers were cultured in 100 μl of fresh media with compounds or DMSO (2×replicates at 100 μM or 1%, respectively) at 37 °C and 5% CO2. Images were captured every 4 hrs. using an Incucyte live cell imaging system equipped with the Scratch Wound Module. Scratch wound widths were calculated, per the manufacturer's instructions, at TO and at endpoint (typically T12 for LN229 and U87 cells and T8 for Gli36), which was taken as the last timepoint before wound closure. The cell migration distance was calculated from scratch widths [(T0Width−TendpointWidth)/2] and normalized to the average distance migrated by the DMSO controls. Values are presented as average percentages±standard errors of the means (s.e.m.). The majority of compounds were screened with an n of two, but the n for priority hits ranges from 2-6.
as §1

Data set [3] has as its target PTPμ (Homo sapiens, UniProt P28827). As to the kind of experiment: PTPμ-dependent Sf9 aggregation assay. It counts as cell-based. Particulars: 100 μM; 20 min pretreatment; in words.
Data set [4] deals with LN229 cells. As to the kind of experiment: LN229 scratch wound healing assay. It counts as cell-based, human. Particulars: for activity at 100 µM: Homo sapiens, LN-229, normalized to DMSO controls, read-out: LN229 scratch wound closure relative to DMSO controls.
Excerpt: FIGS. 3(A-D) illustrate a histogram and images of the LN229 scratch wound assays. A. Histogram showing the effects of all soluble wedge-targeted compounds on LN229 scratch wound closure. Cell movement into the scratches was quantified from scratch wound widths at the start and end of the assay and normalized to the average movement of cells in the unblinded DMSO control samples. Data is presented as average percentages±standard error of the means (s.e.m.), and compound bar codes are shown on the x-axis. The majority of compounds were screened with an n=2. Some priority compounds were screened with 3-6 replicates. Representative endpoint images of samples treated with DMSO (B) and two priority inhibitors (C and D) are shown. The relative migration distances for each example are indicated.
as §2
Scratch assays measure the ability of cells to migrate into a wound and close it creating a monolayer.

Data set [5] concerns U87 cells. The experiment in a line: U87 scratch wound healing assay. The class given is cell-based, human. Particulars: 100 μM.
Excerpt: FIGS. 11(A-D) illustrate a histogram and images of the results of the U87 scratch wound assays. A. Histogram showing the effects of all soluble wedge pocket-targeting compounds on U87 scratch wound closure. Cell movement into the scratches was quantified from scratch wound widths at the start and end of the assay and normalized to the average movement of cells in the unblinded DMSO control samples. Data is presented as average percentages±s.e.m., and compound bar codes are shown on the x-axis. Most compounds were screened with an n of 2-4. Representative images of scratch wounds treated with DMSO (A) or two priority inhibitors (C and D) are shown.
as §2

Data set [6] deals with LN229 cells. As to the kind of experiment: Helix Blue staining of LN229 spheres (cell survival). It counts as cell-based, human. Particulars: 100 μM, 24 h, qualitative. On the procedure:
(§3) FIG. 17 illustrates images showing the effects of prioritized inhibitors on cell survival. LN229 cells were plated onto non-adherent surfaces and cultured in the presence of the indicated compounds (100 μM). On day 1, spheres were stained with Helix Blue to detect dying cells. Parental Sf9 cells (which lack PTPμ) plated onto tissue culture plastic were also grown in the presence of the indicated compounds and, on day 1, stained with Helix Blue. Three compounds appeared to cause a qualitative increase in staining in LN229 spheres. No compound was toxic to Sf9 cells.
(§4) LN229 cells, plated onto non-adherent surfaces as described above, and parental Sf9 cells (without PTPμ), seeded into 96-well flat bottom tissue culture plates, were treated for 24 h with the indicated compounds (100 μM). The cells and spheres were then treated with 5.5 μM Helix Blue (Biolegend, San Diego, CA) and imaged at 10× on a Leica CTR6500 fluorescence microscope.
(§5) The seven penetrant inhibitors were tested to see if they affected the survival of LN229 spheres and parental Sf9 cells (which lack PTPμ) (FIG. 17).

Data set [7] deals with parental Sf9 cells. The experiment in a line: Helix Blue staining of parental Sf9 cells (cell survival). It counts as cell-based, insect. The following applies: 100 μM, 24 h, cells lack PTPμ. On the procedure: as §3, §4, §5

PTPμ, sequence (P28827 21-1452): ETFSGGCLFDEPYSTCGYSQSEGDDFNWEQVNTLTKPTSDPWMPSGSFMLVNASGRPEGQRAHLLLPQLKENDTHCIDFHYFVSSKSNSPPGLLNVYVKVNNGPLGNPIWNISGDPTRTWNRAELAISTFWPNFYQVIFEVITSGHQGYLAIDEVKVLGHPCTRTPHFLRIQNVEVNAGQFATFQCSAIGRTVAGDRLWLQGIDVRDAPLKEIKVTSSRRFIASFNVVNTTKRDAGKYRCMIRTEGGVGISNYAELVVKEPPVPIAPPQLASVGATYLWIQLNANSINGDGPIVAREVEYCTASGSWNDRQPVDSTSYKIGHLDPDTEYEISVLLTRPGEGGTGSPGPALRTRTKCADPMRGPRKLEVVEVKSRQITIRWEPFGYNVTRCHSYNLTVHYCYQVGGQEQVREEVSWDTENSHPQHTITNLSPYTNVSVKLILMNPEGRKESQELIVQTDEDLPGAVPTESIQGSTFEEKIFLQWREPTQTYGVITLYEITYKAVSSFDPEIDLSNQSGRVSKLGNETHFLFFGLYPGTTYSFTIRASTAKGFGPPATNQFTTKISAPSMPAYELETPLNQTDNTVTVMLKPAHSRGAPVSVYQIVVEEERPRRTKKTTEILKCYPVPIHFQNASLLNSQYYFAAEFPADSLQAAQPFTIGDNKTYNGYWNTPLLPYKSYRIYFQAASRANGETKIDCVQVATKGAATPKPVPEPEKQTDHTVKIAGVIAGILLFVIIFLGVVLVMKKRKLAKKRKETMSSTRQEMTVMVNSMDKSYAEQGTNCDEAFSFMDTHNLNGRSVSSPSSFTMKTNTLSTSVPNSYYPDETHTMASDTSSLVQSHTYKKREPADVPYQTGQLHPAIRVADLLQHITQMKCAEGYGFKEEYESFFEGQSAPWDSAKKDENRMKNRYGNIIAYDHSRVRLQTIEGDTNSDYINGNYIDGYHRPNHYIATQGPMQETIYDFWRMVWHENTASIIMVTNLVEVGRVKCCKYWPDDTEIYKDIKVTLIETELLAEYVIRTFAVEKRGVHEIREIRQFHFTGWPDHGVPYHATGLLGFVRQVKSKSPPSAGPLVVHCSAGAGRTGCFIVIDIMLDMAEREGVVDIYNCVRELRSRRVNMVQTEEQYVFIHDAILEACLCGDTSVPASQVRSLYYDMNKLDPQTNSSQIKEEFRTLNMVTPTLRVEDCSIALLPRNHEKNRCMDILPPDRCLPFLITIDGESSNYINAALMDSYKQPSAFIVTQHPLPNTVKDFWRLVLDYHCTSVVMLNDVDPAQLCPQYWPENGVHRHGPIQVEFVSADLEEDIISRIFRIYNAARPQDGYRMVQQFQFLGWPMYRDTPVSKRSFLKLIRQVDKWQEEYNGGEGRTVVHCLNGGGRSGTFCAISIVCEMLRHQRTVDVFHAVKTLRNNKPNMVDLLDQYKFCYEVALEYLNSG

As for `CCC1(CC)NC(=O)N(CC(=O)Nc2ccc(Oc3ccccc3)cc2)C1=O` [Compound 247682206], in data set [1], the “Effect on LN229 sphere formation” value is given as “delayed sphere formation” and the “Effect on LN229 sphere growth” value is given as “inhibited growth”. Moreover, the “Effect on glioma cells, overall” value in data set [2] is on record as “highly penetrant inhibitors; also recorded: able to inhibit glioma cells”. Further, in data set [2] (scratch assays), the “Effect on glioma cell migration” value was “able to inhibit glioma cell migration”. Besides, the “Effect on PTPμ-dependent Sf9 aggregation / adhesion” value in data set [3] is recorded as “PTPμ-dependent adhesion; also recorded: affect PTPμ-mediated aggregation”. In addition, the activity at 100 µM in data set [4] was below 60%. Besides, the “Effect on U87 cell morphology in scratch assay” value in data set [5] was “pile-up of U87 cells at the edge of the scratch wound”.
With `COc1ccccc1CNC(=O)CC(NC(N)=O)c1cccc(Oc2ccccc2)c1` (centres unmarked) [Compound 247679045], the “Effect on LN229 sphere formation” value in data set [1] was “completely blocked sphere formation”. Also, the “Effect on glioma cells, overall” value in data set [2] is recorded as “highly penetrant inhibitors in glioma cell assays”. In addition, the “Effect on LN229 cell survival / cell death” value in data set [6] is “caused a qualitative increase in LN229-cell death”. Further, the “Effect on parental Sf9 cell survival” value in data set [7] is reported as “did not affect parental Sf9 cells”. Besides, the “Effect on PTPμ-dependent Sf9 aggregation / adhesion” value in data set [3] is listed as “not shown to affect PTPμ-mediated aggregation; also recorded: did not affect PTPμ-dependent adhesion”. The activity at 100 µM in data set [4] is below 60%.
Regarding `CC(C)COc1ccc(C(=O)N2CCNC(=O)C2CC(=O)OC2CCCCC2)cc1` (centres unmarked) [Compound 247682240], in data set [1], the “Effect on LN229 sphere formation” value was “delayed sphere formation” and the “Effect on LN229 sphere growth” value was “inhibited growth”. Moreover, in data set [2], the “Effect on glioma cells, overall” value is given as “highly penetrant inhibitors”. Besides, the “Effect on PTPμ-dependent Sf9 aggregation / adhesion” value in data set [3] was “not shown to affect PTPμ-mediated aggregation”. Also, the activity at 100 µM in data set [4] is below 60%. The “Effect on U87 cell morphology in scratch assay” value in data set [5] is “pile-up of U87 cells at the edge of the scratch wound”.
For `Cc1cccc(-c2ccc3c(c2)C(=O)N2CCC(NC(=O)COCC(=O)O)C2C(=O)N3)c1C` (centres unmarked) [Compound 247685429], the “Effect on glioma cells, overall” value in data set [2] is reported as “did not affect glioma cells”. For the same compound, in data set [3], the “Effect on PTPμ-dependent Sf9 aggregation / adhesion” value was “able to inhibit PTPμ-dependent adhesion; also recorded: able to inhibit PTPμ-mediated aggregation”.
For `O=C1NC2(CCCC2)C(=O)N1CC(=O)N(Cc1cccs1)c1ccc2c(c1)OCCO2` [Compound 247679515], in data set [1], the “Effect on LN229 sphere formation” value is given as “completely blocked sphere formation”. The “Effect on glioma cells, overall” value in data set [2] is on record as “highly penetrant inhibitors in glioma cell assays”. The “Effect on PTPμ-dependent Sf9 aggregation / adhesion” value in data set [3] is on record as “not shown to affect PTPμ-mediated aggregation; also recorded: did not affect PTPμ-dependent adhesion”. The “Effect on LN229 cell morphology in scratch assay” value in data set [4] (100 μM) is recorded as “rounding”. Further, the activity at 100 µM in data set [4] is below 60%.
